Experiment: Ames test
Format: cell-based
Details: impurity contained in the prepared AFDX0250; found in the development stage of a pharmaceutical composition

Question: For `O=C1Nc2cccnc2N(C(=O)CCl)c2ccccc21` [Compound 1, 11-(2-chloroacetyl)-5,11-dihydro-6H-pyrido[2,3-b][1,4]benzodiazepin-6-one], which Ames test result is on record?
Answer: positive

— patent publication US20250214992A1, “HIGH-PURITY COMPOUND PRODUCTION METHOD AND PURIFICATION METHOD” (SANTEN PHARMACEUTICAL CO., LTD., priority 2022, published 2025)
